In US5373089A, “Oxytocin antagonist” (Northwestern University, priority 1993, dated 1994):
Starred links: 1 amine or outer side, 2 acyl side, 3 side chain; linkers in the order of their positions; H or OH if unused. Positions of bridges follow the written chain, without caps; N, C: chain ends. Non-standard residues stand in square brackets, D forms with d. Residues, ends and D or L forms follow the SMILES beside them. X1 = O=C(CC1(S[*:2])CCCCC1)[*:1]

Assays:
HUMAN OXYTOCIN RECEPTOR = molecular target: T1, HUMAN OXYTOCIN RECEPTOR (Homo sapiens, UniProt P30559); assay: Oxytocin receptor assay, human myometrial tissue membranes, 3H-OT competition; assay type: binding
T1 construct: Oxytocin receptors (OTrs) reside on the cell membrane and are present at high concentrations at the end of pregnancy in uterine tissue; from tissue; host or cells: human myometrium from cesarean section patients, sucrose-gradient membrane fraction
T1 sequence (P30559 1-389): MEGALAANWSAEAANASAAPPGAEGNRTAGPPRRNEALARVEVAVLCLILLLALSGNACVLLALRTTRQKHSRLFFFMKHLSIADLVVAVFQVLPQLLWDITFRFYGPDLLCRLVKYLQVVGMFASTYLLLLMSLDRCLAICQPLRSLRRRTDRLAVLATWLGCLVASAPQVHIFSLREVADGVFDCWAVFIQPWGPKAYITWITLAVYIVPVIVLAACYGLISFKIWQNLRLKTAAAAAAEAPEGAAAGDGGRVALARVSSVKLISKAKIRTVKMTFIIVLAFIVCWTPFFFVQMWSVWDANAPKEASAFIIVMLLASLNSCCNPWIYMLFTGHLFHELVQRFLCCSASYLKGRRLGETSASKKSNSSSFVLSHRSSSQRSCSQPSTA
Description: Human myometrial tissue was collected from patients at the time of cesarian section after informed consent. The tissue was rinsed in cold buffer, cut into small pieces and frozen at -70° C. until homogenization.
(§1) Oxytocin receptors (OTrs) reside on the cell membrane and are present at high concentrations at the end of pregnancy in uterine tissue. Frozen tissue is homogenized in Tris buffer, the homogenate filtered, and the filtrate centrifuged at 1000 g for 15 minutes at 4° C. The supernatant is centrifuged at 40,000 g for 30 minutes and the pellet containing the cell membranes resuspended in 10% sucrose. Density gradient ultracentrifugation is then performed by placing the 10 % sucrose suspension on top of 35% sucrose and centrifuging for 30 minutes in a swing bucket rotor at 105,000 g. The membranes at the interface of the 10%/35% sucrose are removed and resuspended in Tris buffer containing EDTA for 30 minutes. This procedure removes divalent cation and results in dissociation of any endogenously bound OT to the receptor. This mixture is then centrifuged for 15 minutes at 100,000 g and the pellet containing the membrane OTrs resuspended in Tris, PMSF, Mg^++, buffer by sonication.
(§2) The binding assay consist of 0.1 ml of 20,000 cmp of tritium labeled OT (New England Nuclear, […]), 0.1 ml of OT antagonist added at increasing concentration, 0.25 ml of buffer and 0.05 ml of membrane (70-150 ug protein). A nonspecific tube has 100× of cold OTA added to it. The incubation is for 30 minutes at 30 ° C. The membrane is pelleted by centrifugation in ultraclear mini tubes (5×41 mm) for 30 minutes at 105,000 g. The resulting pellet containing the bound ^3 H-OT is dissolved in 0.1N NaOH at 45 ° C. for 30 minutes and this mixture is then placed in liquid scintillation counting fluid and counted for dpms in a scintillation counter.
(§3) The data is analyzed by nonlinear curve fitting methods using McPherson's EBDA (J Pharmacol Methods 14:213-228, 1985) and Munson and Rodbard's LIGAND (Anal Biochem 107:220-239, 1980) program for saturation and competition analysis for determining Kds and Kis.

RAT OXYTOCIN RECEPTOR = molecular target: T2, RAT OXYTOCIN RECEPTOR (Rattus norvegicus, UniProt P70536); assay: Oxytocin receptor assay, pregnant rat uterus (P21) membranes, 3H-OT competition; assay type: binding
T2 construct: from tissue; host or cells: uterus of day-21 pregnant Holtzman rats, sucrose-gradient membrane fraction
T2 sequence (P70536 1-388): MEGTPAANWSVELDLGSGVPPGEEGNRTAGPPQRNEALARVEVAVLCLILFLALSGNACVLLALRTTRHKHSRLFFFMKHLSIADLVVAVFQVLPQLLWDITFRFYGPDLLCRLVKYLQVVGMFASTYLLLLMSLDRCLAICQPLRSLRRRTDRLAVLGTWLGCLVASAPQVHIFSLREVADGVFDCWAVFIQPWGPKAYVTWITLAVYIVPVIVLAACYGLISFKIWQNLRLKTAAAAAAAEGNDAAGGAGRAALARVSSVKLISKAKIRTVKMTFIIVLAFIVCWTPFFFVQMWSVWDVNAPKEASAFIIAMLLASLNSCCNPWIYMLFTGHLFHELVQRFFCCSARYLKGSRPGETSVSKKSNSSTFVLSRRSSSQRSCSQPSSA
Description: Uterine tissue was removed on day 21 of pregnancy (delivery=Days 211/2 to 221/2) from Holtzman rats. The tissue was emptied of its contents, rinsed in ice cold buffer, cut into small pieces and frozen at -70° C. until homogenization.
as §1, §2, §3

pregnant baboon = assay: Oxytocin challenge test in tethered pregnant baboon (antagonists-response interval); assay type: in vivo; conditions: for ARI (OTA/ANTI): ratio to ANTAG I
Description: The baboon is an excellent animal model because of its physiologic and anatomic similarity to humans (see articles by our laboratory: Am J Obstet Gynecol. 163:1815-1882, 1990; Am J Obstet Gynecol 165:456-560, 1991; Am J Obstet Gynecol 165:1487-1498, 1991; articles by other laboratories: Endocrine Reviews 11:124-150, 1990; 11:151-176, 1990). Pregnant tethered baboons were studied between 130 to 145 days of pregnancy Delivery=day 184). The oxytocin antagonists were administered as a single bolus injection of 1 mg intra-arterially followed 1 minute later by the infusion of oxytocin. […] This oxytocin antagonist was not produced in our laboratory and is not an oxytocin analog.

Row | Compound | Kd (HUMAN OXYTOCIN RECEPTOR) | Kd (RAT OXYTOCIN RECEPTOR) | ARI (antagonists-response interval) (pregnant baboon; 1 mg single bolus intra-arterially, then oxytocin infusion, pregnant baboon day 130-145) | time for which the response to oxytocin was blocked (pregnant baboon; one mg, pregnant baboon) | ARI (OTA/ANTI) (pregnant baboon) | ARI (OTA/ANTI) (pregnant baboon; listed as ANTAG III) | ARI (OTA/ANTI) (pregnant baboon; listed as compound D) | RECEPTOR ASSAY Ka (RAT OXYTOCIN RECEPTOR; pregnant rat uterus (P21), Table 3) | rOTr (OTA/ANTI) (RAT OXYTOCIN RECEPTOR; ratio of binding affinity to ANTAG I, rat oxytocin receptor)
1 | CC[C@H](C)[C@@H]1NC(=O)[C@H](Cc2ccccc2)NC(=O)[C@@H](Cc2c[nH]c3ccccc23)NC(=O)CC2(CCCCC2)SSC[C@@H](C(=O)N2CCC[C@H]2C(=O)N[C@@H](CCCNC(=N)N)C(=O)NCC(N)=O)NC(=O)[C@H](CC(N)=O)NC1=O [Compound B, [Pmp^1,D-Trp^2,Phe^3,Ile^4,Arg^8] oxytocin] ([dW]FINCPRG-NH2; linker N-5 via X1) | 19.6 nM | 8.62 nM | – | – | – | – | – | – | –
2 | [(S)Pmp^1,D-Trp^2,Pen^6,Arg^8 ] oxytocin [Compound D] | – | – | 7856 | greater than 24 hours | 133 | 133 | about 130 | 24.40 10^+8 M^-1 | 20.0
